The source of these data is patent publication US20120022058A1, “4,5-DIHYDRO-1H-PYRAZOLE COMPOUNDS AND THEIR PHARMACEUTICAL USES” (Pfizer Inc., priority 2009, published 2012).

For this assay, the target named is T1, MR (Homo sapiens, UniProt P08235).
T1 construct: expressed in transfected cells; host or cells: Huh7 human liver cells, transient transfection
T1 sequence (P08235 726-964 limits assumed): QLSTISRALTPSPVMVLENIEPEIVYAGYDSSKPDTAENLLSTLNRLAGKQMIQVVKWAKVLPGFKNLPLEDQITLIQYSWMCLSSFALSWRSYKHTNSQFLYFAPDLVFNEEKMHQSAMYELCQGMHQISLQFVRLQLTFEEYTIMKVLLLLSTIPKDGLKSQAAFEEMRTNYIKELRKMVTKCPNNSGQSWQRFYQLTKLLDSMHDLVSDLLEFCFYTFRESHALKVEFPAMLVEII
Kind of assay: Cell-Based Reporter Assay (Gal4 DBD-MR LBD luciferase reporter, antagonist mode).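 Note: cells co-transfected with a Gal4 response element luciferase plasmid, compound exposure overnight before lysis and luminescence counting, IC50 reflects reduced aldosterone-stimulated reporter signal.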 To be noted: antagonist mode vs aldosterone at EC80; transfected human liver cells (Huh7); luciferase readout; Examples 3, 6, 12 and 13 tested in analogous format with minor variations. (Reporter assays use an easily measured gene product as a stand-in for the process of interest.)
The IC50 is the concentration that inhibits the measured activity by half. The low end stands for higher potency, the high end for lower potency. In the case of `COc1cc(C2=NN(c3ccc(C#N)c(C)n3)[C@@H](C3CCCC3)C2)ccc1CC(=O)O` [Example 54, (R)-2-(4-(1-(5-cyano-6-methylpyridin-2-yl)-5-cyclopentyl-4,5-dihydro-1H-pyrazol-3-yl)-2-methoxyphenyl)acetic acid], the IC50 was 95.7 nM.

Compound `CCOc1nc(C2=NN(c3ccc(C#N)c(C)c3)[C@@H](C3CCCC3)C2)ccc1C(N)=O` [Example 55, (R)-6-(1-(4-cyano-3-methylphenyl)-5-cyclopentyl-4,5-dihydro-1H-pyrazol-3-yl)-2-ethoxynicotinamide] displayed an IC50 of 3.9 nM. Against the preceding compound, the IC50 is about 25-fold lower.

`Cc1cc(C2=NN(c3ccc(C#N)c(C)n3)[C@@H](C3CCCC3)C2)cc(C)c1O` [Example 57, (R)-6-(5-cyclopentyl-3-(4-hydroxy-3,5-dimethylphenyl)-4,5-dihydro-1H-pyrazol-1-yl)-2-methylnicotinonitrile] returned an IC50 of 503 nM.

The compound `Cc1nc(N2N=C(c3cc(F)c(O)c(F)c3)C[C@@H]2C2CCCC2)ccc1C#N` [Example 61, (R)-6-(5-cyclopentyl-3-(3,5-difluoro-4-hydroxyphenyl)-4,5-dihydropyrazol-1-yl)-2-methylnicotinonitrile] displayed an IC50 of 208 nM. Against the preceding compound, the IC50 is about 2.4-fold lower.

`Cc1nc(N2N=C(c3ccc(O)c(F)c3)C[C@@H]2C2CCCC2)ccc1C#N` [Example 62, (R)-6-(5-cyclopentyl-3-(3-fluoro-4-hydroxyphenyl)-4,5-dihydropyrazol-1-yl)-2-methylnicotinonitrile]: the IC50 worked out at 92.3 nM.

Compound `Cc1nc(N2N=C(c3ccc4c(c3)C(C)(C)OC(=O)N4)C[C@@H]2C2CCCC2)ccc1C#N` [Example 64, (R)-6-(5-cyclopentyl-3-(4,4-dimethyl-2-oxo-2,4-dihydro-1H-benzo[d][1,3]oxazin-6-yl)-4,5-dihydro-1H-pyrazol-1-yl)-2-methylnicotinonitrile] registered a 50% inhibitory concentration (IC50) of 10 nM.

As for `CC(=O)Nc1cccc(C2=NN(c3ccc(C#N)c(C)n3)[C@@H](C3CCCC3)C2)n1` [Example 66, (R)—N-(6-(1-(5-cyano-6-methylpyridin-2-yl)-5-cyclopentyl-4,5-dihydro-1H-pyrazol-3-yl)pyridin-2-yl)acetamide], the IC50 is 255 nM.

`Cc1nc(N2N=C(c3cccc(OC(C)C)n3)C[C@@H]2C2CCCC2)ccc1C#N` [Example 67, (R)-6-(5-cyclopentyl-3-(6-isopropoxypyridin-2-yl)-4,5-dihydro-1H-pyrazol-1-yl)-2-methylnicotinonitrile] returned an IC50 of 170 nM.

`COc1nc(C2=NN(c3ccc(C#N)c(C)c3)C(C3CC(F)(F)C3)C2)ccc1C(=O)O` (stereo not drawn) [Example 70, 6-(1-(4-cyano-3-methylphenyl)-5-(3,3-difluorocyclobutyl)-4,5-dihydro-1H-pyrazol-3-yl)-2-methoxynicotinic acid] registered an IC50 of 147 nM. The IC50 values of the last two compounds are within 1.5-fold of each other.
